Where a name gives a salt, the structure may show the parent alone.
Legend:
[1] = molecular target: Norepinephrine transporter (Rattus norvegicus, UniProt Q9JIA2)
[2] = molecular target: T1, Muscarinic acetylcholine receptor M2 (Rattus norvegicus, UniProt P10980)
T1 sequence (P10980 whole entry): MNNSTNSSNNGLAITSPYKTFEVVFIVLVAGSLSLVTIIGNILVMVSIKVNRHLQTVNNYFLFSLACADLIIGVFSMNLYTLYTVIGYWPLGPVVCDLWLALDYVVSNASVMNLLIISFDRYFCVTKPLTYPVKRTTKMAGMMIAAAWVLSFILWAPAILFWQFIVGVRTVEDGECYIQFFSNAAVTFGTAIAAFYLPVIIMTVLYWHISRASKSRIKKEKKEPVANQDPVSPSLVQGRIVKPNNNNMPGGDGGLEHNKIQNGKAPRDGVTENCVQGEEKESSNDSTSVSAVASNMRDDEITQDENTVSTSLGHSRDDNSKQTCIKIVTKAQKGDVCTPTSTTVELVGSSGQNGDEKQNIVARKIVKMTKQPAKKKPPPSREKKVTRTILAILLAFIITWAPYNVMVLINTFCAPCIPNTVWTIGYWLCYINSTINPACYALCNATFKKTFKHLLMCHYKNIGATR

[3] = molecular target: Beta-2 adrenergic receptor (Rattus norvegicus, UniProt P10608)
[4] = molecular target: T2, Alpha-2C adrenergic receptor (Rattus norvegicus, UniProt P22086)
T2 sequence (P22086 whole entry): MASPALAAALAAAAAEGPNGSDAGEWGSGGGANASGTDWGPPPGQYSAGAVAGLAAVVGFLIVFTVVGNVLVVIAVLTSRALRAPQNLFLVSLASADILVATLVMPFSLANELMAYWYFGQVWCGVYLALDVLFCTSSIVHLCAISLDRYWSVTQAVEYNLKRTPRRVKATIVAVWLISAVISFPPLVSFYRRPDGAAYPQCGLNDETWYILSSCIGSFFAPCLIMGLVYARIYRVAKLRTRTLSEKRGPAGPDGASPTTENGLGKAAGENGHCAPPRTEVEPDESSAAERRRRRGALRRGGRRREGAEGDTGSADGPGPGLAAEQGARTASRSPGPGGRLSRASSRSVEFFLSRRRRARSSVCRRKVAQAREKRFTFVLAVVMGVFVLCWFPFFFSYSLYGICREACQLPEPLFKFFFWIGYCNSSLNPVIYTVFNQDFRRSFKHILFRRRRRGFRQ

[5] = molecular target: Histamine H1 receptor (Rattus norvegicus, UniProt P31390)
[6] = molecular target: T3, Alpha-1A adrenergic receptor (Rattus norvegicus, UniProt P43140)
T3 sequence (P43140 whole entry): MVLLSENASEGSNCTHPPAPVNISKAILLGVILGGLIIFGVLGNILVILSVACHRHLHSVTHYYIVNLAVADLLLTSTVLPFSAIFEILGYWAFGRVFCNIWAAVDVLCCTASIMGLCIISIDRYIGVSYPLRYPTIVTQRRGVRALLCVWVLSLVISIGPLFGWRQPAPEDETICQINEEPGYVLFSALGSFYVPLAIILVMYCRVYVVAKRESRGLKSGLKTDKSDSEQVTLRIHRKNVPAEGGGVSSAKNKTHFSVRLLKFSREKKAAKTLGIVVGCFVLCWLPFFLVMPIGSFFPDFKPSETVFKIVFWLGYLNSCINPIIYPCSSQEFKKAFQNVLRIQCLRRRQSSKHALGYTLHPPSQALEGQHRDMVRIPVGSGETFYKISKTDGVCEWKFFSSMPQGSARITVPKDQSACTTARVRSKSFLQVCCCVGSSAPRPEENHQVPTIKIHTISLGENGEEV

[7] = molecular target: T4, 5-hydroxytryptamine receptor 1A (Rattus norvegicus, UniProt P19327)
T4 sequence (P19327 whole entry): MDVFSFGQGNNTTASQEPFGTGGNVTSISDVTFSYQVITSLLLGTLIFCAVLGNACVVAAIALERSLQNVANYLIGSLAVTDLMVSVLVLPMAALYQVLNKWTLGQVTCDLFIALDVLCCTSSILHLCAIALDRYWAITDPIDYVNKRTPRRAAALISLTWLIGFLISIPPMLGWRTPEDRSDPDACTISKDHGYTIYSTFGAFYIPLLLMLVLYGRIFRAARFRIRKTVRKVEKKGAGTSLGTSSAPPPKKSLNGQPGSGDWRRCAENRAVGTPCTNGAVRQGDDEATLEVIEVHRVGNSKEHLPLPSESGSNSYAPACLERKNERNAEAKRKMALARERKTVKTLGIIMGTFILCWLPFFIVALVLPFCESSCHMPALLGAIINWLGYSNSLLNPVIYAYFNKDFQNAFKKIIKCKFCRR

[8] = molecular target: D(2) dopamine receptor (Rattus norvegicus, UniProt P61169)
[9] = molecular target: D(1A) dopamine receptor (Rattus norvegicus, UniProt P18901)
[10] = molecular target: 5-hydroxytryptamine receptor 2A (Rattus norvegicus, UniProt P14842)
[11] = molecular target: T5, 5-hydroxytryptamine receptor 2C (Rattus norvegicus, UniProt P08909)
T5 sequence (P08909 whole entry): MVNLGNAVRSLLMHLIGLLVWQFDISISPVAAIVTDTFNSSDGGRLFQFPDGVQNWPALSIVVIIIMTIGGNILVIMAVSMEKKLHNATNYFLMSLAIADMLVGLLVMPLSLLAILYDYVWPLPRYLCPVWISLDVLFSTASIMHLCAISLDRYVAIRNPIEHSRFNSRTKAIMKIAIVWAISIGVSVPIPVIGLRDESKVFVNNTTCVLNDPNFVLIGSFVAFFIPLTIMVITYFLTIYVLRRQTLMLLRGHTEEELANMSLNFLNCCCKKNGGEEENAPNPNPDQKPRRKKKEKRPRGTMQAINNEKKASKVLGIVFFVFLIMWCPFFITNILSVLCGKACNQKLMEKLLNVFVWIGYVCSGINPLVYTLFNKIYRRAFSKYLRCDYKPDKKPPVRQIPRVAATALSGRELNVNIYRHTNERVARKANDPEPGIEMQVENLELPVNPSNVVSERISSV

[12] = molecular target: Sodium-dependent dopamine transporter (Rattus norvegicus, UniProt P23977)
[13] = molecular target: Sodium-dependent serotonin transporter (Rattus norvegicus, UniProt P31652)
Sequence of Sodium-dependent serotonin transporter (P31652 whole entry): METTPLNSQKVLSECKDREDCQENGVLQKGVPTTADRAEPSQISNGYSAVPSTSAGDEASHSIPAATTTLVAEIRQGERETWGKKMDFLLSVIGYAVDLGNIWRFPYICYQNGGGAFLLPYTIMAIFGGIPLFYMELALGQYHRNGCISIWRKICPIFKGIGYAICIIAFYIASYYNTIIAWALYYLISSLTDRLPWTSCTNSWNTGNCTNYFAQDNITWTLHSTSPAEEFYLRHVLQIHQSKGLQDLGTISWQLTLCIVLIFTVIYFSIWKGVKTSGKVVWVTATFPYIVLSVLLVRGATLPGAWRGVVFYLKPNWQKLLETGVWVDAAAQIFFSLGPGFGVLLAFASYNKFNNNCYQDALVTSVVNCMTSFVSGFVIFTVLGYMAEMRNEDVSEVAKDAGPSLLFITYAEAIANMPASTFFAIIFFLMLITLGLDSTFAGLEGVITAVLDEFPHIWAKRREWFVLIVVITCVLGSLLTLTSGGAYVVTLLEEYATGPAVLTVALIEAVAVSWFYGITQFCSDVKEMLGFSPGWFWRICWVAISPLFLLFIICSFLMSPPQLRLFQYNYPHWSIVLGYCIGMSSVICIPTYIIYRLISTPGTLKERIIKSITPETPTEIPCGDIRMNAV

Sequence of Beta-2 adrenergic receptor (P10608 whole entry): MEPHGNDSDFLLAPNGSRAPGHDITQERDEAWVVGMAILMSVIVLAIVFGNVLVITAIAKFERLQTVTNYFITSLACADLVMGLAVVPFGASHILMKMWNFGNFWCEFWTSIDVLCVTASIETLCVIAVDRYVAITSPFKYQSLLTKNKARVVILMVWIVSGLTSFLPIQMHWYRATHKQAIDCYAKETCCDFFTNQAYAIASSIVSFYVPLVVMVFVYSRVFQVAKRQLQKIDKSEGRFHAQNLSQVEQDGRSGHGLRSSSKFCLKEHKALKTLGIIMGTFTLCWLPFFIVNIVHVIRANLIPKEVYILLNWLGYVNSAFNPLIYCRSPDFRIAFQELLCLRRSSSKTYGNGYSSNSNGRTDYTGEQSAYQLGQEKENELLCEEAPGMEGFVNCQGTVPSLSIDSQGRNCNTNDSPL
Sequence of Sodium-dependent dopamine transporter (P23977 whole entry): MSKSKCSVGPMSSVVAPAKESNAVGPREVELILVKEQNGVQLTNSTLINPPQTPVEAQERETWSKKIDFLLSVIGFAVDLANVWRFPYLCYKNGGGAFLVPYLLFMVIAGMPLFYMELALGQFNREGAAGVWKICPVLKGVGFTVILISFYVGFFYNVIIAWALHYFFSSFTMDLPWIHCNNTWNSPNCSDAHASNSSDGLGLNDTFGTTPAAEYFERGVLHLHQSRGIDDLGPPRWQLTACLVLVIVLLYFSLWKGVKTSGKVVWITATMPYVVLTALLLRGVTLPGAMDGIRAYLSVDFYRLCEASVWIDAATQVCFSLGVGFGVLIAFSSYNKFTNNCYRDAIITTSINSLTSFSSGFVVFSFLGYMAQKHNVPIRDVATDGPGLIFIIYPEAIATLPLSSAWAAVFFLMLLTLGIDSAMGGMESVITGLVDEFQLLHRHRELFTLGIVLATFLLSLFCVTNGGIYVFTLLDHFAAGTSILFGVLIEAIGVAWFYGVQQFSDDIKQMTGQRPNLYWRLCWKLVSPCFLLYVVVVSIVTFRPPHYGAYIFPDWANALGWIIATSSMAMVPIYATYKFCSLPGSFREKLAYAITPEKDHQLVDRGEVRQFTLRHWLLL
Sequence of Histamine H1 receptor (P31390 whole entry): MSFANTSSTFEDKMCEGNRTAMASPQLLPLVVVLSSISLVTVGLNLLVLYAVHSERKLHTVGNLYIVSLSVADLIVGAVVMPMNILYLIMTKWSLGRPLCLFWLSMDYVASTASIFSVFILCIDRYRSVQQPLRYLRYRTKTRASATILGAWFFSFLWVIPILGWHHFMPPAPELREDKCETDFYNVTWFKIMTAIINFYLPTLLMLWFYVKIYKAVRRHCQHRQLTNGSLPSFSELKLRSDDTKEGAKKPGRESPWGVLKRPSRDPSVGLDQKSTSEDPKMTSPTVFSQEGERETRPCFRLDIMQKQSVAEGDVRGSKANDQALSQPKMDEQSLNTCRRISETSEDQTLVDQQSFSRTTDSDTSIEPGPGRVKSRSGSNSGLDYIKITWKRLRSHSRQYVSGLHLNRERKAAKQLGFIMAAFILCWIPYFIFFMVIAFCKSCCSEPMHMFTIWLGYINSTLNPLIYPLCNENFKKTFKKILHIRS
Sequence of 5-hydroxytryptamine receptor 2A (P14842 whole entry): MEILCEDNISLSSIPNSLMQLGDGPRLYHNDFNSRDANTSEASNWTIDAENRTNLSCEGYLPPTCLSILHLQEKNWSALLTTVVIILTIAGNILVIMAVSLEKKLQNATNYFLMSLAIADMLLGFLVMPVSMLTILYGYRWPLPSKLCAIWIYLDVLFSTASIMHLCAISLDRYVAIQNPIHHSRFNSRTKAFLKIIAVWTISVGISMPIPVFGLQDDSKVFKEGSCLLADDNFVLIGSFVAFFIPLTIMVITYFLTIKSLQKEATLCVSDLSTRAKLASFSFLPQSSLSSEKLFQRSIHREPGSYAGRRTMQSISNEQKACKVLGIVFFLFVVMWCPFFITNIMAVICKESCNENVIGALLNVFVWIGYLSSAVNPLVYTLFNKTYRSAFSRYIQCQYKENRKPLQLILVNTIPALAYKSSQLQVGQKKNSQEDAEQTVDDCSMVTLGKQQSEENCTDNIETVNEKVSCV
Sequence of D(2) dopamine receptor (P61169 whole entry): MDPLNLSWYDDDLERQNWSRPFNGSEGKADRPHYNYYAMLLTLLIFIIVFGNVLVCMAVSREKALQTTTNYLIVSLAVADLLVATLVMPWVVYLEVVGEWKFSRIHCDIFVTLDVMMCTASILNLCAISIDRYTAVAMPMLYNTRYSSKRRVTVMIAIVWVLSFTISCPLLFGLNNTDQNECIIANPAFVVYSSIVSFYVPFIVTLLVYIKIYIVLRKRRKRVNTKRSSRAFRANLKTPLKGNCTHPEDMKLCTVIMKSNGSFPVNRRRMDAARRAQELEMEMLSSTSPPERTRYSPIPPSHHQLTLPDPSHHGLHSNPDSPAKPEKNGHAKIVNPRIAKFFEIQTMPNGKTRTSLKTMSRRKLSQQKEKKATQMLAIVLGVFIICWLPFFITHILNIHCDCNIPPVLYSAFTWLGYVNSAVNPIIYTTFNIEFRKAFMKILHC
Sequence of D(1A) dopamine receptor (P18901 whole entry): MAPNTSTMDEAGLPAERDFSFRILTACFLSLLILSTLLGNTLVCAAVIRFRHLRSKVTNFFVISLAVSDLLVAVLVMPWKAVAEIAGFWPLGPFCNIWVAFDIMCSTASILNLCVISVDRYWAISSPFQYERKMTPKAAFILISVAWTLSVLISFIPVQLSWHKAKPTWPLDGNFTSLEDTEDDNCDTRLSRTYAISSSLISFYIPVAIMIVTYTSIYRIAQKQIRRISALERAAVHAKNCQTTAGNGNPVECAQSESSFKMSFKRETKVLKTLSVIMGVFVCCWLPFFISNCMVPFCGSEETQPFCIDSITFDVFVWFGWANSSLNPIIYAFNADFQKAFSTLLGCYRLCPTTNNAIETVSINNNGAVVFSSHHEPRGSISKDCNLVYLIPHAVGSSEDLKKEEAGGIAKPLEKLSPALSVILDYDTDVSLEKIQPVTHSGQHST

Row | SMILES | Ki [1] | Ki [2] | Ki [3] | Ki [4] | Ki [5] | Ki [6] | Ki [7] | Ki [8] | Ki [9] | Ki [10] | Ki [11] | Ki [12] | Ki [13]
1 | CN(C)CCC=C1c2ccccc2CCc2ccccc21 | 0.024 µM | 0.0089 µM | > 10 µM | 0.34 µM | 0.0083 µM | 0.069 µM | > 10 µM | 0.85 µM | 0.081 µM | 0.011 µM | 0.008 µM | 5.3 µM | –
2 | CCc1nn(CCCN2CCN(c3cccc(Cl)c3)CC2)c(=O)n1CCOc1ccccc1 [2-{3-[4-(3-chlorophenyl)piperazin-1-yl]propyl}-5-ethyl-4-(2-phenoxyethyl)-2,4-dihydro-3H-1,2,4-triazol-3-one] | 0.11 µM | > 10 µM | > 10 µM | 1.2 µM | 0.37 µM | 0.042 µM | 1 µM | – | 1.5 µM | – | – | 0.47 µM | –
3 | COCCCC/C(=N\OCCN)c1ccc(C(F)(F)F)cc1 [(1E)-5-methoxy-1-[4-(trifluoromethyl)phenyl]pentan-1-one O-(2-aminoethyl)oxime] | 0.62 µM | > 10 µM | > 10 µM | 1.9 µM | > 10 µM | 4.8 µM | > 10 µM | > 10 µM | > 10 µM | > 10 µM | 6.7 µM | > 10 µM | –
4 | CC(NC(C)(C)C)C(=O)c1cccc(Cl)c1 (stereo unspecified) [BUPROPION HYDROCHLORIDE] | 1.4 µM | > 10 µM | > 10 µM | > 10 µM | – | > 10 µM | – | > 10 µM | > 10 µM | – | > 10 µM | 0.57 µM | –
5 | CN(C)CCC=C1c2ccccc2CSc2ccccc21 [CAS_897-15-4] | 0.07 µM | 0.026 µM | – | 0.012 µM | 0.004 µM | 0.419 µM | 4 µM | – | – | 0.152 µM | – | 5.18 µM | –
6 | CN(CCCN1c2ccccc2CCc2ccccc21)CC(=O)c1ccc(Cl)cc1 [CAS_23047-25-8] | 0.0027 µM | 0.3 µM | > 10 µM | 2.1 µM | 1 µM | 0.62 µM | > 10 µM | 6.7 µM | 0.5 µM | 1.2 µM | – | 3.3 µM | 0.88 µM
7 | CN(C)CCCC1(c2ccc(F)cc2)OCc2cc(C#N)ccc21 (stereo unspecified) [CITALOPRAM HYDROBROMIDE] | – | 5.6 µM | > 10 µM | > 10 µM | – | – | > 10 µM | > 10 µM | > 10 µM | – | 0.63 µM | – | –
8 | COc1ccc(C(CN(C)C)C2(O)CCCCC2)cc1 (stereo unspecified) [NSC_62923] | – | > 10 µM | – | > 10 µM | > 10 µM | – | > 10 µM | > 10 µM | > 10 µM | – | > 10 µM | – | –
9 | Fc1ccc([C@@H]2CCNC[C@H]2COc2ccc3c(c2)OCO3)cc1 [PAROXETINE] | – | 0.21 µM | > 10 µM | 8.9 µM | > 10 µM | > 10 µM | > 10 µM | > 10 µM | > 10 µM | – | > 10 µM | – | –
10 | CNCC[C@@H](Oc1ccc(C(F)(F)F)cc1)c1ccccc1 [Prozac] | – | – | > 10 µM | – | 3.2 µM | – | – | > 10 µM | > 10 µM | – | – | – | –
11 | CN[C@@H]1CC[C@@H](c2ccc(Cl)c(Cl)c2)c2ccccc21 [[4-(3,4-Dichloro-phenyl)-1,2,3,4-tetrahydro-naphthalen-1-yl]-methyl-amine] | – | 1.1 µM | > 10 µM | – | > 10 µM | 2.8 µM | > 10 µM | > 10 µM | 6.3 µM | – | – | – | –

Source: BindingDB's records for doi:10.1023/a:1006986824213 (1999)
